Measured values from patent US20240325554A1, “METHODS FOR TREATING CANCER” (Bicycle Tx Limited, priority 2021, published 2024).
“Also recorded” adds a separate entry of the source. Numbered stars: 1 amine (or outer) side, 2 acyl side, 3 side chain; on linkers, the order of the positions; unused ones are H or OH. Bridge positions count the residues as written; N and C are the ends. Square brackets hold non-standard residues; d marks the D form. I, II: the chains in the order shown. X2 = O=C(CCOCCOCCOCCN(CCOCCOCCOCCn1cc(CCC(=O)[*:2])nn1)CCOCCOCCOCCn1cc(CCC(=O)[*:3])nn1)[*:1]; TATA = O=C(CC[*:1])N1CN(C(=O)CC[*:2])CN(C(=O)CC[*:3])C1; X1 = CC(C)[C@H](N[*:1])C(=O)C[C@@H](CC(N)=O)C(=O)[*:2]; X3 = O=C(CC[*:1])N1CN(C(=O)CC[*:3])CN(C(=O)C[*:2])C1; d1Nal = N[C@H](Cc1cccc2ccccc12)C(=O)O; Hyp = O=C(O)[C@@H]1C[C@@H](O)CN1; hArg = N=C(N)NCCCC[C@H](N)C(=O)O; tBuAla = CC(C)(C)C[C@H](N)C(=O)O; Nle = CCCC[C@H](N)C(=O)O

How the values were obtained:
CD137 [1] = target: T1, CD137 (Homo sapiens, UniProt Q07011); assay: CD137 activation; assay type: cell-based
T1 sequence (Q07011 24-255): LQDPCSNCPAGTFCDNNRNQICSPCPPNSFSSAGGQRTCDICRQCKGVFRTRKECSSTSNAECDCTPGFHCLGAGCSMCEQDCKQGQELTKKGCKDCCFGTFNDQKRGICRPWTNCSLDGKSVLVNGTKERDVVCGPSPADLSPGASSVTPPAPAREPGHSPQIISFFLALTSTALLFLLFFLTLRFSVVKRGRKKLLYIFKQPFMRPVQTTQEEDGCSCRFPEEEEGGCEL

[2] = test system: MC38 #13 (MC38 cells engineered to express Nectin-4) tumor tissue; assay: transcriptional (Nanostring) analysis of MC38 #13 tumors, study with BT7480; assay type: in vivo, huCD137-C57B/6J mice; details: 5 mg/kg i.v. 0 h, 24 h
Procedure: For the transcriptional and immunohistochemical (IHC) analyses, 6-8 week old female huCD137-C57B/6J mice (Biocytogen) mice were implanted subcutaneously with 1×10^6 MC38 #13 (MC38 cells engineered to express Nectin-4) cells. Mice were randomized into treatment groups when average tumor volumes reached around 255 mm^3 to receive vehicle, BT7480 (BCY00011863), non-binder BCY control BCY00012797 (BCY12797) or αCD137 antibody (urelumab analogue). BT7480 and its non-binding control were dosed intravenously at 5 mg/kg (in 25 mM histidine HCl, 10% sucrose, pH7; Vehicle) at 0 h and 24 h and urelumab analogue was dosed intraperitoneally at 2 mg/kg in PBS BIW (0 h, 72 h) dose and schedule. Tumors from BT7480-treated mice were harvested at 24 h (after the 0 h dose), 48 h (24 h after the last of 0 h and 24 h dose), 96 h (72 h after the last of 0 h and 24 h dose) and 144 h (120 h after the last of 0 h and 24 h dose). Tumors from αCD137-treated mice were harvested at 144 h after treatment initiation. Tumors from vehicle treated mice were harvested 24 h after the 0 h dose and at 144 h (120 h after the last of 0 h and 24 h dose). RNA was isolated from tumor tissues using RNAeasy kit (Qiagen) and transcriptional analysis was performed using nCounter Mouse PanCancer IO 360 panel (Nanostring) from 100 ng RNA/tumor. Data were analyzed using the nSolver Analysis Software with advanced analysis probe set ns_mm_io_360_v1.0 (Nanostring).

[3] = test system: MC38 #13 cells (MC38 cells engineered to overexpress Nectin-4); assay: efficacy study BT7480 with anti-PD-1 and anti-Ctla-4, MC38 #13 tumor growth and survival; assay type: in vivo, C57BL/6J-huCD137 mice; details: i.p. BIW for 2 weeks, 1 mg/kg BT7480, 5 mg/kg antibodies, by day 33
Procedure: For tumor growth analysis, 6-8 week old female C57BL/6J-huCD137− mice (Biocytogen) were implanted subcutaneously with 1×10+e6 MC38 #13 cells (MC38 cells engineered to overexpress Nectin-4). Mice were randomized into treatment groups when average tumor volumes reached around 100 mm^3 and were treated intraperitoneally with vehicle (25 mM histidine, 10% sucrose, pH7), 1 mg/kg BT7480, 5 mg/kg anti-PD-1 (RMP 1-14), 5 mg/kg anti-Ctla-4 (9H10) or BT7480/anti-PD-1 and BT7480/anti-Ctla-4 combinations. Treatments were given twice weekly (BIW) for 2 weeks, and tumor growth was monitored by caliper measurements until day 33 after treatment initiation. Animals with >2000 mm^3 tumors were sacrificed as they had reached the Humane Endpoint.

CD137 [4] = target: T1, CD137; assay: IL-2 and IFN-γ cytokine secretion; assay type: cell-based
MC38 tumor tissue [5] = assay: transcriptional (Nanostring) profiling of MC38 tumors, study with BT7455; assay type: in vivo, huCD137-C57B/6J mice
Procedure: For the transcriptional profiling analyses of the effects of BT7455 in the immune tumor microenvironment, 6-8 week old female huCD137-C57B/6J mice (Biocytogen) mice were implanted subcutaneously with 1×10+E6 MC38 cells. Mice were randomized into treatment groups when average tumor volumes reached around 350 mm^3 to receive vehicle, BT7455, αCD137 antibody (urelumab analogue) or αPD-1 antibody. BT7455 was dosed intravenously at 8 mg/kg (in 25 mM histidine HCl, 10% sucrose, pH7; Vehicle) at 0 h and 24 h and urelumab analogue and αPD-1 antibody were dosed intraperitoneally at 2 mg/kg (urelumab analogue) or 10 mg/kg (αPD-1 antibody) in PBS at 0 h. Tumors from vehicle, BT7455, urelumab analogue and αPD-1 antibody-treated mice were harvested at 24 h, 48 h and 144 h after treatment initiation. RNA was isolated from tumor tissues using RNAeasy kit (Qiagen) and transcriptional analysis was performed using nCounter Mouse PanCancer IO 360 panel (Nanostring) from 100 ng RNA/tumor. Data were analyzed using the nSolver Analysis Software with advanced analysis probe set ns_mm_io_360 v1.0 (Nanostring).

MC38 tumor [6] = assay: MC38 tumor model in mice (BCY13272); assay type: in vivo
MC38 tumor [7] = assay: efficacy study BCY12491 and Pembrolizumab combination, MC38 tumor growth; assay type: in vivo, huCD137/huPD-1-C57B/6J mice
Procedure: For tumor growth analysis, 6-8 week old female huCD137/huPD-1-C57B/6J mice (Biocytogen) mice were implanted subcutaneously with 1×10^6 MC38 cells. Mice were randomized into treatment groups when average tumor volumes reached around 92 mm^3 and were treated intravenously with vehicle (25 mM histidine, 10% sucrose, pH7), 5 mg/kg BCY12491 (0, 24 h) or intraperitoneally with 3 mg/kg anti-PD-1 antibody Pembrolizumab or a combination of BCY12491 and Pembrolizumab. Combination treatments were given with three different dosing schedules: BCY12491 and Pembrolizumab treatment initiating at the same time on day 0, BCY12491 treatment initiating on […] and Pembrolizumab treatment initiating on day 5, or Pembrolizumab treatment initiating of day 0 and BCY12491 treatment initiating on day 5. Treatments were given weekly for four doses and tumor growth was monitored by caliper measurements.

MC38 tumor tissue [8] = assay: IHC analysis for CD8+ cells in MC38 tumor tissue, study with BCY12491; assay type: in vivo, huCD137-C57B/6J mice; details: Q3D for three doses, Day 6, vs vehicle or non-binder
Procedure: (§1) For the transcriptional and immunohistochemical (IHC) analyses, 6-8 week old female huCD137-C57B/6J mice (Biocytogen) mice were implanted subcutaneously with 1×10^6 MC38 cells. Mice were randomized into treatment groups when average tumor volumes reached around 240 mm^3 and were treated intravenously with vehicle (25 mM histidine, 10% sucrose, pH7), 15 mg/kg BCY12491, 15 mg/kg BCY13626 (non-binding control) or intraperitoneally with 2 mg/kg anti-CD137 antibody urelumab. Treatments were given Q3D for three doses, tumor growth was monitored by caliper measurements and tumor tissues were harvested 1 hour after the last dose on Day 6. Part of the tumor tissue was used for RNA isolation for transcriptional analysis and a part of the tumor tissue was used for formalin-fixed paraffin embedded (FFPE) sample preparation for IHC analysis. RNA was isolated from tumor tissues using RNAeasy kit (Qiagen) and transcriptional analysis was performed using nCounter Mouse PanCancer IO 360 panel (Nanostring) from 100 ng RNA/tumor. Data were analyzed using the nSolver Analysis Software with advanced analysis probe set ns_mm_io_360_v1.0 (Nanostring). CD8+ tumor infiltrating cells were stained in FFPE tissue sections using anti-mouse CD8 antibody (Abcam, #ab217344) and Ventana Discovery OmniMap anti Rabbit-HRP Kit (Ventana #760 4310).

MC38 tumor tissue [9] = assay: transcriptional (Nanostring) analysis of MC38 tumors, profiling study with BCY12491; assay type: in vivo, huCD137-C57B/6J mice; details: Q3D for three doses, Day 6, vs vehicle, 15 mg/kg i.v. peptides, 2 mg/kg i.p. antibody
Procedure: as §1

CCCC[C@@H]1NC(=O)[C@H](Cc2ccc(O)cc2)NC(=O)[C@@H]2CCCN2C(=O)[C@H](CC(=O)O)NC(=O)[C@H](C)NC(=O)[C@H](Cc2ccccc2)NC(=O)[C@@H]2CSCCC(=O)N3CN(CN(C3)C(=O)CCSC[C@@H](C(=O)N[C@@H](C)C(N)=O)NC1=O)C(=O)CCSC[C@H](NC(C)=O)C(=O)N[C@@H](CC(C)(C)C)C(=O)N1CCC[C@H]1C(=O)N[C@@H](CCC(=O)O)C(=O)N[C@H](CCCCNC(=O)CCc1cn(CCOCCOCCOCCN(CCOCCOCCOCCC(=O)N[C@H]3CSCCC(=O)N4CN5CN(C4)C(=O)CCSC[C@H](NC(=O)[C@@H](CC(=O)O)NC(=O)[C@H](Cc4cccc6ccccc46)NC(=O)[C@@H]4CCCN4C3=O)C(=O)N[C@@H](CCSC)C(=O)N[C@@H](CCCCNC(=N)N)C(=O)N[C@@H](CC(=O)O)C(=O)N[C@@H](Cc3c[nH]c4ccccc34)C(=O)N[C@@H](CO)C(=O)N[C@@H]([C@@H](C)O)C(=O)N3CCC[C@H]3C(=O)N3C[C@H](O)C[C@H]3C(=O)N[C@@H](Cc3c[nH]c4ccccc34)C(=O)N[C@H](C(N)=O)CSCCC5=O)CCOCCOCCOCCn3cc(CCC(=O)NCCCC[C@H]4NC(=O)[C@H](CCC(=O)O)NC(=O)[C@@H]5CCCN5C(=O)[C@H](CC(C)(C)C)NC(=O)[C@@H](NC(C)=O)CSCCC(=O)N5CN6CN(C5)C(=O)CCSC[C@H](NC(=O)[C@H](Cc5ccc(O)cc5)NC(=O)[C@@H]5CCCN5C4=O)C(=O)N[C@@H](Cc4ccccc4)C(=O)N[C@@H](C)C(=O)N[C@@H](CC(=O)O)C(=O)N4CCC[C@H]4C(=O)N[C@@H](Cc4ccc(O)cc4)C(=O)N[C@@H](CCCC)C(=O)N[C@H](C(=O)N[C@@H](C)C(N)=O)CSCCC6=O)nn3)nn1)C(=O)N1CCC[C@H]1C(=O)N[C@@H](Cc1ccc(O)cc1)C(=O)N2 [BT7480]
CD137 activation (CD137 [1]): strong CD137 activation | mRNA for T cell chemotactic chemokines/cytokines such as Ccl1, Ccl17 and Ccl24 [2]: significant early (24 hour timepoint) increase | mRNAs for immune checkpoints (Ctla4, Pdcd1, Cd274, Lag3, Havcr2, Pdcd1lg2, Tigit) ([2]; 5 mg/kg): increase in several immune checkpoint mRNAs; also recorded: trend to increase or significant increase | cytotoxic cell score in tumor tissue ([2]; 144 h vs vehicle at 144 h): significantly increased | Macrophage Cell Score in tumor tissue ([2]; by 48 h vs 24 h vehicle readout): significant increase | rate of complete responses (CRs) [3]: 0/8 | IL-2 and IFN-γ cytokine secretion (CD137 [4]): robust IL-2 and IFN-γ cytokine secretion

I: A[hArg]DC[Hyp]L[X1]PLCLEP[d1Nal]WTC-NH2 / II: Ac-C[tBuAla]PE[dK]PYCFADPY[Nle]CA-NH2 / III: Ac-C[tBuAla]PE[dK]PYCFADPY[Nle]CA-NH2 (linker I:4-I:10-I:17, II:1-II:8-II:15 via TATA; linker I:N-II:5-III:5 via X2; linker III:1-III:8-III:15 via X3) [BT7455]
mRNAs for immune checkpoints (Ctla4, Pdcd1, Cd274, Lag3, Havcr2, Pdcd1lg2, Tigit) (MC38 tumor tissue [5]; 8 mg/kg i.v. 0 h, 24 h): increase in several immune checkpoint mRNAs; also recorded: significant increase | mRNA for T cell chemotactic chemokines/cytokines such as Ccl1, Ccl17 and Ccl24 (MC38 tumor tissue [5]; 8 mg/kg i.v., 24-48 hour timepoint): significant early (24-48 hour timepoint) increase | cytotoxic cell score in tumor tissue (MC38 tumor tissue [5]; 8 mg/kg i.v., vs vehicle or anti-PD-1 or anti-CD137 treated mice): significant increase | modulation of gene sets (signature scores) (MC38 tumor tissue [5]; 48 h after treatment initiation, 8 mg/kg BT7455, 10 mg/kg anti-PD-1, 2 mg/kg urelumab analogue): significant early (48 hours) modulation of several gene sets | antitumor effect (MC38 tumor [6]): significant antitumor effect

Pembrolizumab: anti-PD-1 antibody Pembrolizumab
anti-tumor activity compared to vehicle control (MC38 tumor [7]; 5 mg/kg BCY12491 QW (0, 24 h), 3 mg/kg Pembrolizumab QW, combination both from day 0, D18, p<0.0001): significantly affected the tumor growth; also recorded: significant anti-tumor activity | complete responses (MC38 tumor [7]; monotherapy treatment cohorts, 5 mg/kg BCY12491 (0, 24 h) or 3 mg/kg Pembrolizumab weekly): 3/10

anti-CD137 antibody: anti-CD137 antibody urelumab
infiltration of CD8+ cells in tumors (IHC) (MC38 tumor tissue [8]): Some increase of CD8+ cell infiltration | T cell score in tumor tissue (MC38 tumor tissue [9]): increased significantly | cytotoxic cell score in tumor tissue (MC38 tumor tissue [9]): increased significantly
